Measurements from patent US20230242558A1, “NICOTINATE AND NICOTINAMIDE RIBOSIDE-BASED COMPOUNDS AND DERIVATIVES THEREOF” (New Frontier Bio, Inc., priority 2022, published 2023).

System: HaCaT cells
Assay: NAD assay in HaCaT cells, total NAD level normalized to protein
Format: cell-based
Settings: 4 hours incubation, concentration not given
Description: The biological activity of certain compounds disclosed herein was determined using the following method: • 1. Plate HaCaT cells in 12-well tissue culture plates at a density of 200,000 cells per well in 0.75 mL DMEM growth medium. Incubate overnight at 37° C. in a incubator at 5% CO2. • 2. Next day, prepare dilutions of each compound in growth medium at the desired final concentration. • 3. Incubate cells as above for 4 hours. • 4. After the incubation, wash cell monolayers in each well with 200 uL PBS and add 200 uL 0.25% Trypsin. Let cells lift for 15 minutes. • 5. Once cells are lifted, collect cells into sterile 1.5 mL Eppendorf tube containing 400 uL of DMEM w/2% HI FBS. • 6. Centrifuge tubes for 500×g for 5 min. • 7. Aspirate supernatant and wash cells with 200 uL of cold PBS. • 8. Centrifuge tubes for 500×g for 5 min. • 9. Aspirate supernatant and add 400 μL of cold extraction buffer (provided in the NAD assay kit) and vortex each tube for 10 seconds. • 10. Centrifuge samples at 13,000×g for 10 min to remove insoluble material. • 11. Use a small aliquot of extract to determine total protein concentration by BCA protein assay kit. • 12. Deproteinize samples by filtering them through a 10 kDa cut-off spin filter. Centrifuge at 13,000×g for 10 min. • 13. After cell lysate is filtered, load 25 uL of samples to 96 well plate for NAD assay. • 14. Add 25 uL of extraction buffer to each well with samples to dilute them 1:2. Add 50 uL of standards to appropriate wells. • 15. Set up master reaction mix of cycling buffer and NAD cycling enzyme mix. Add 100 uL of mix to each well and incubate for […]. • 16. Add 10 uL of developer into each well. • 17. Let plate incubate at room temperature for 1 hr. • 18. Stop the reaction by adding 10 uL of stop solution into each well and mix well. • 19. Measure absorbance at 450 nm using plate reader. • 20. Plot standard curve and normalize data to determine total NAD level.

SMILES	NAD+ level
CC(C)Cc1ccc(C(C)C(=O)NCCNC(=O)c2cccnc2)cc1 (centres unmarked)	697 pmol/mg protein
COC(=O)c1ccc[n+]([C@@H]2O[C@H](COC(C)=O)[C@@H](OC(C)=O)[C@H]2OC(C)=O)c1	323 pmol/mg protein
CC(=O)OC[C@H]1O[C@@H]([n+]2cccc(C(=O)Sc3ccccc3)c2)[C@H](OC(C)=O)[C@@H]1OC(C)=O	<1 pmol/mg protein
O=C(Sc1ccccc1)c1ccc[n+]([C@@H]2O[C@H](CO)[C@@H](O)[C@H]2O)c1	<1 pmol/mg protein
CCOC(=O)c1ccc[n+]([C@@H]2O[C@H](COC(C)=O)[C@@H](OC(C)=O)[C@H]2OC(C)=O)c1	674 pmol/mg protein
CC(C)(C)OC(=O)c1ccc[n+]([C@@H]2O[C@H](COP(=O)([O-])O)[C@@H](O)[C@H]2O)c1	<1 pmol/mg protein
CC(C)(C)OC(=O)c1ccc[n+]([C@@H]2O[C@H](CO)[C@@H](O)[C@H]2O)c1	1162 pmol/mg protein
O=C(Oc1ccc(/C=C/c2cc(OC(=O)c3cccnc3)cc(OC(=O)c3cccnc3)c2)cc1)c1cccnc1	616 pmol/mg protein
CC1CCC(C(C)C)C(OC(=O)c2cccnc2)C1 (centres unmarked)	<1 pmol/mg protein
CCC(=O)OC[C@H]1O[C@@H]([n+]2cccc(C(=O)O)c2)[C@H](OC(=O)CC)[C@@H]1OC(=O)CC	667 pmol/mg protein
CC(C)(C)OC(=O)CCCCCCCCCCCCCCCCC(=O)NCCNC(=O)c1cccnc1	460 pmol/mg protein
[2H]c1nc([2H])c(C(=O)NCCCCCC[P+](c2ccccc2)(c2ccccc2)c2ccccc2)c([2H])c1[2H]	435 pmol/mg protein
O=C(Cc1ccccc1Nc1c(Cl)cccc1Cl)NCCNC(=O)c1cccnc1	338 pmol/mg protein
CC(=O)OC[C@H]1O[C@@H]([n+]2cccc(C(=O)OCc3ccccc3)c2)[C@H](OC(C)=O)[C@@H]1OC(C)=O	426 pmol/mg protein
O=C(O)c1ccc[n+]([C@@H]2O[C@H](COC(=O)c3cccnc3)[C@@H](OC(=O)c3cccnc3)[C@H]2OC(=O)c2cccnc2)c1	656 pmol/mg protein
O=C(OCc1ccccc1)c1ccc[n+]([C@@H]2O[C@H](CO)[C@@H](O)[C@H]2O)c1	463 pmol/mg protein
CC(=O)OC[C@H]1O[C@@H]([n+]2cccc(C(=O)O)c2)[C@H](OC(C)=O)[C@@H]1OC(C)=O	311 pmol/mg protein
CC(=O)OC[C@H]1O[C@@H]([n+]2cccc(C(=O)OC(C)(C)C)c2)[C@H](OC(C)=O)[C@@H]1OC(C)=O	<1 pmol/mg protein
O=C(OCCO)c1cccnc1	501 pmol/mg protein
NCCNC(=O)c1cccnc1	587 pmol/mg protein
O=C(NCCNCCC[P+](c1ccccc1)(c1ccccc1)c1ccccc1)c1cccnc1	391 pmol/mg protein

SMILES	NAD+ level
O=C(NCCNCCCCCC[P+](c1ccccc1)(c1ccccc1)c1ccccc1)c1cccnc1	378 pmol/mg protein
O=C(Oc1ccc2c(c1)oc(=O)c1cc(O)ccc12)c1cccnc1	681 pmol/mg protein
O=C(OCCCCCC[P+](c1ccccc1)(c1ccccc1)c1ccccc1)c1cccnc1	<1 pmol/mg protein
O=C(OCCOCCC[P+](c1ccccc1)(c1ccccc1)c1ccccc1)c1cccnc1	<1 pmol/mg protein
O=C(OCCC[P+](c1ccccc1)(c1ccccc1)c1ccccc1)c1cccnc1	576 pmol/mg protein
O=C(NC[P+](c1ccccc1)(c1ccccc1)c1ccccc1)c1cccnc1	521 pmol/mg protein
O=C(OC[P+](c1ccccc1)(c1ccccc1)c1ccccc1)c1cccnc1	319 pmol/mg protein
O=C(NCC[P+](c1ccccc1)(c1ccccc1)c1ccccc1)c1cccnc1	466 pmol/mg protein
O=C(NCCC[P+](c1ccccc1)(c1ccccc1)c1ccccc1)c1cccnc1	560 pmol/mg protein
O=C(CCCCC[P+](c1ccccc1)(c1ccccc1)c1ccccc1)NCCNC(=O)c1cccnc1	607 pmol/mg protein
CCCCCCCCCCCCCCOC(=O)c1ccc[n+]([C@@H]2O[C@H](CO)[C@@H](O)[C@H]2O)c1	<1 pmol/mg protein
CCCCCCCCCCCCCCOC(=O)c1ccc[n+]([C@@H]2O[C@H](COC(C)=O)[C@@H](OC(C)=O)[C@H]2OC(C)=O)c1	<1 pmol/mg protein
CCCCCCCCCCCCCCOC(=O)c1ccc[n+]([C@@H]2O[C@H](COP(=O)([O-])O)[C@@H](O)[C@H]2O)c1	475 pmol/mg protein
O=C(OCC[P+](c1ccccc1)(c1ccccc1)c1ccccc1)c1cccnc1	<1 pmol/mg protein
CCCCCCCCCCCCCCNC(=O)c1ccc[n+]([C@@H]2O[C@H](COC(C)=O)[C@@H](OC(C)=O)[C@H]2OC(C)=O)c1	<1 pmol/mg protein
NCCOC(=O)c1cccnc1	562 pmol/mg protein
CCCC(=O)OC[C@H]1O[C@@H]([n+]2cccc(C(=O)O)c2)[C@H](OC(=O)CCC)[C@@H]1OC(=O)CCC	831 pmol/mg protein
CC1=C(/C=C/C(C)=C/C=C/C(C)=C/C(=O)NCCNC(=O)c2cccnc2)C(C)(C)CCC1	815 pmol/mg protein
CC(=O)OC[C@H]1O[C@@H]([n+]2cccc(C(=O)NCCCCCC[P+](c3ccccc3)(c3ccccc3)c3ccccc3)c2)[C@H](OC(C)=O)[C@@H]1OC(C)=O	565 pmol/mg protein
CC(=O)OC[C@H]1O[C@@H]([n+]2cccc(C(=O)NCCNC(=O)c3ccc[n+]([C@@H]4O[C@H](COC(C)=O)[C@@H](OC(C)=O)[C@H]4OC(C)=O)c3)c2)[C@H](OC(C)=O)[C@@H]1OC(C)=O	354 pmol/mg protein
CC(=O)OC[C@H]1O[C@@H]([n+]2cccc(C(=O)NCCNC(=O)CCCCC[P+](c3ccccc3)(c3ccccc3)c3ccccc3)c2)[C@H](OC(C)=O)[C@@H]1OC(C)=O	311 pmol/mg protein

SMILES	NAD+ level
CC(=O)OC[C@H]1O[C@@H]([n+]2cccc(C(=O)NCCC[P+](c3ccccc3)(c3ccccc3)c3ccccc3)c2)[C@H](OC(C)=O)[C@@H]1OC(C)=O	292 pmol/mg protein
O=C(NCCCCCC[P+](c1ccccc1)(c1ccccc1)c1ccccc1)c1ccc[n+]([C@@H]2O[C@H](CO)[C@@H](O)[C@H]2O)c1	285 pmol/mg protein
CC(C)Cc1ccc(C(C)C(=O)OCCOC(=O)c2cccnc2)cc1 (centres unmarked)	539 pmol/mg protein
CCCCCc1cc(OC(=O)c2cccnc2)c2c(c1)OC(C)(CCC=C(C)C)C=C2 (centres unmarked)	375 pmol/mg protein
O=C(OCCOCCCCCC[P+](c1ccccc1)(c1ccccc1)c1ccccc1)c1cccnc1	230 pmol/mg protein
O=C(CCCCC[P+](c1ccccc1)(c1ccccc1)c1ccccc1)NCCOC(=O)c1cccnc1	<1 pmol/mg protein
O=C(NCc1ccccc1)c1ccc[n+]([C@@H]2O[C@H](CO)[C@@H](O)[C@H]2O)c1	274 pmol/mg protein
O=C(CCCC[P+](c1ccccc1)(c1ccccc1)c1ccccc1)NCCNC(=O)c1cccnc1	495 pmol/mg protein
O=C(CCCC[P+](c1ccccc1)(c1ccccc1)c1ccccc1)NCCOC(=O)c1cccnc1	508 pmol/mg protein
O=C(OCCOCCCCCCCCC[P+](c1ccccc1)(c1ccccc1)c1ccccc1)c1cccnc1	<1 pmol/mg protein
O=C(NCCNCCCCCCCCC[P+](c1ccccc1)(c1ccccc1)c1ccccc1)c1cccnc1	395 pmol/mg protein
CCCCCCCCCCCCCCNC(=O)c1ccc[n+]([C@@H]2O[C@H](CO)[C@@H](O)[C@H]2O)c1	<1 pmol/mg protein
CC(=O)OC[C@H]1O[C@@H]([n+]2cccc(C(=O)OCCOC(=O)c3ccc[n+]([C@@H]4O[C@H](COC(C)=O)[C@@H](OC(C)=O)[C@H]4OC(C)=O)c3)c2)[C@H](OC(C)=O)[C@@H]1OC(C)=O	655 pmol/mg protein
CC(=O)OC[C@H]1O[C@@H]([n+]2cccc(C(=O)OC3CC(C)CCC3C(C)C)c2)[C@H](OC(C)=O)[C@@H]1OC(C)=O (some centres unmarked)	258 pmol/mg protein
CC1CCC(C(C)C)C(OC(=O)c2ccc[n+]([C@@H]3O[C@H](CO)[C@@H](O)[C@H]3O)c2)C1 (some centres unmarked)	464 pmol/mg protein
CC(=O)Oc1cc(/C=C/c2ccc(OC(=O)c3cccnc3)cc2)cc(OC(C)=O)c1	122 pmol/mg protein
O=C(Oc1ccc(/C=C/c2cc(O)cc(O)c2)cc1)c1ccc[n+]([C@@H]2O[C@H](CO)[C@@H](O)[C@H]2O)c1	94 pmol/mg protein
CC(=O)OC[C@H]1O[C@@H]([n+]2cccc(C(=O)Oc3ccc(/C=C/c4cc(OC(C)=O)cc(OC(C)=O)c4)cc3)c2)[C@H](OC(C)=O)[C@@H]1OC(C)=O	<1 pmol/mg protein
CC1CCC(C(C)C)C(OC(=O)c2ccc[n+]([C@@H]3O[C@H](COP(=O)([O-])O)[C@@H](O)[C@H]3O)c2)C1 (some centres unmarked)	472 pmol/mg protein
O=C(Oc1cc(OC(=O)c2cccnc2)c2c(=O)c(O)c(-c3ccc(OC(=O)c4cccnc4)c(OC(=O)c4cccnc4)c3)oc2c1)c1cccnc1	328 pmol/mg protein
